Reference: paper PMC10022191, “Safety, tolerability, pharmacokinetics, and antiviral activity of the novel core protein allosteric modulator ZM-H1505R (Canocapavir) in chronic hepatitis B patients: a randomized multiple-dose escalation trial” (BMC Medicine, 2023)

Assay: phase 1b trial: adverse reactions and tolerability in CHB patients
Assay type: in vivo, human
Settings: 28 days
Protocol: This was a randomized, open-label, placebo-controlled, phase 1b study (Clinical Trial Registration Number: NCT05470829; Chinese Clinical Trial Registration Number: CTR20210686), which was conducted at the Phase I Clinical Research Center, The First Hospital of Jilin University (Jilin, China), during the period from May to November of 2021. In order to minimize the safety risk of Canocapavir, an adaptive ascending dosing strategy was adopted for Canocapavir treatment in this study. The second and third assigned doses were initiated only after the safety data from the previous dose was reviewed and determined to be safe by the Principal Investigator and the Sponsor on day 8 postdosing (post drug administration days). Canocapavir was administered at the Clinical Research Center on days 1–8 and day 28 and at home on days 9–27 under the same conditions (fixed administration time and fasting condition). Patients were required to visit the facility for follow-up on days 15, 22, 27, 43 ± 1, and 57 ± 2 postdosing. The study protocol and informed consent forms were prepared according to the principles of the Declaration of Helsinki. The study protocol was approved by the Institutional Review Board of the First Hospital of Jilin University (approval number: 20Y201-006). All recruited patients provided written informed consent before participating in any study-related procedures.
A total of 30 CHB patients were recruited in this study and were randomly assigned into three cohorts (N = 10, each). In these three cohorts, the patients (in a ratio of 4:1) received 50, 100, or 200 mg of Canocapavir or placebo once a day for 28 consecutive days under fasting conditions, followed by a 28-day follow-up (Fig. 1). The patients, care providers, and those assessing outcomes were blinded during the study. This random process was completed in an electronic data capture system, and the details are shown in Additional file 1.
To examine possible adverse events (AEs) and adverse reactions (an adverse event is definitely, probably, or possibly related to the drug) in this study, the recruited patients underwent regular clinical laboratory testing, 12-lead electrocardiograms, examination of vital signs, abdominal ultrasound, and regular physical examinations, using the baseline data as a control. The severity of AEs and laboratory abnormalities were graded according to the Common Terminology Criteria for Adverse Events (CTCAE), version 5.0, which defines toxicity criteria. The AEs were coded using the Medical Dictionary for Regulatory Activities, version 24.1 (McLean, VA, USA).

O=C1CO[C@H](c2cn(-c3ccc(Br)cc3)nc2-c2ccc(F)cc2)N1CCc1ccc2[nH]c(=O)[nH]c2c1 [Canocapavir]
0 case: Decreased platelet count, cases (50 mg q.d.) | Decreased serum phosphorus, cases (50 mg q.d.) | Hypertriglyceridemia, cases (50 mg q.d.) | Increased bilirubin, cases (50 mg q.d.) | Increased γ-glutamyltransferase, cases (50 mg q.d.) | Rash, cases (50 mg q.d.) | Decreased serum phosphorus, cases (100 mg q.d.) | Hypertriglyceridemia, cases (100 mg q.d.)
5 n: Adverse reactions, total (all grades), number of subjects (100 mg q.d.)
2 (25) n (%): Increased alanine aminotransferase, number of subjects (%) (50 mg q.d.)
3 n: Adverse reactions, total (all grades), number of subjects (50 mg q.d.) | Increased alanine aminotransferase, grade I, number of subjects (100 mg q.d.)
1 case: Decreased neutrophil count, cases (50 mg q.d.) | Decreased white blood cell count, cases (50 mg q.d.) | Increased aspartate aminotransferase, cases (50 mg q.d.) | Increased creatinine, cases (50 mg q.d.) | Decreased neutrophil count, cases (100 mg q.d.) | Decreased platelet count, cases (100 mg q.d.) | Decreased white blood cell count, cases (100 mg q.d.)
50.00%: Adverse reactions, grade I, percent of subjects (100 mg q.d.)
3 (37.5) n (%): Total adverse reactions, number of subjects (%) (50 mg q.d.) | Increased alanine aminotransferase, number of subjects (%) (100 mg q.d.)
2 case: Increased alanine aminotransferase, cases (50 mg q.d.)
62.5%: Adverse reactions, total (all grades), percent of subjects (100 mg q.d.)
3 case: Increased alanine aminotransferase, cases (100 mg q.d.)
37.5%: Adverse reactions, total (all grades), percent of subjects (50 mg q.d.)
4 n: Adverse reactions, grade I, number of subjects (100 mg q.d.)
25.00%: Adverse reactions, grade I, percent of subjects (50 mg q.d.) | Increased alanine aminotransferase, grade I, percent of subjects (50 mg q.d.)
2 n: Adverse reactions, grade I, number of subjects (50 mg q.d.) | Increased alanine aminotransferase, grade I, number of subjects (50 mg q.d.)
1 n: Adverse reactions, grade III, number of subjects (50 mg q.d.) | Increased aspartate aminotransferase, grade I, number of subjects (50 mg q.d.) | Increased creatinine, grade I, number of subjects (50 mg q.d.) | Adverse reactions, grade II, number of subjects (100 mg q.d.) | Decreased platelet count, grade I, number of subjects (100 mg q.d.)
12.50%: Adverse reactions, grade III, percent of subjects (50 mg q.d.) | Decreased neutrophil count, grade III, percent of subjects (50 mg q.d.) | Decreased white blood cell count, grade II, percent of subjects (50 mg q.d.) | Increased aspartate aminotransferase, grade I, percent of subjects (50 mg q.d.) | Increased creatinine, grade I, percent of subjects (50 mg q.d.) | Adverse reactions, grade II, percent of subjects (100 mg q.d.) | Decreased neutrophil count, grade II, percent of subjects (100 mg q.d.) | Decreased platelet count, grade I, percent of subjects (100 mg q.d.) | Decreased white blood cell count, grade II, percent of subjects (100 mg q.d.)
0%: Adverse reactions, grade II, percent of subjects (50 mg q.d.) | Decreased neutrophil count, grade II, percent of subjects (50 mg q.d.) | Decreased platelet count, grade I, percent of subjects (50 mg q.d.) | Decreased serum phosphorus, grade I, percent of subjects (50 mg q.d.) | Hypertriglyceridemia, grade III, percent of subjects (50 mg q.d.) | Increased alanine aminotransferase, grade II, percent of subjects (50 mg q.d.) | Increased aspartate aminotransferase, grade II, percent of subjects (50 mg q.d.) | Increased bilirubin, grade I, percent of subjects (50 mg q.d.) | Increased γ-glutamyltransferase, grade I, percent of subjects (50 mg q.d.) | Rash, grade I, percent of subjects (50 mg q.d.) | Adverse reactions, grade III, percent of subjects (100 mg q.d.) | Decreased neutrophil count, grade III, percent of subjects (100 mg q.d.) | Decreased serum phosphorus, grade I, percent of subjects (100 mg q.d.) | Hypertriglyceridemia, grade III, percent of subjects (100 mg q.d.) | Increased alanine aminotransferase, grade II, percent of subjects (100 mg q.d.)
0 n: Adverse reactions, grade II, number of subjects (50 mg q.d.) | Decreased neutrophil count, grade II, number of subjects (50 mg q.d.) | Decreased platelet count, grade I, number of subjects (50 mg q.d.) | Decreased serum phosphorus, grade I, number of subjects (50 mg q.d.) | Hypertriglyceridemia, grade III, number of subjects (50 mg q.d.) | Increased alanine aminotransferase, grade II, number of subjects (50 mg q.d.) | Increased aspartate aminotransferase, grade II, number of subjects (50 mg q.d.) | Increased bilirubin, grade I, number of subjects (50 mg q.d.) | Increased γ-glutamyltransferase, grade I, number of subjects (50 mg q.d.) | Rash, grade I, number of subjects (50 mg q.d.) | Adverse reactions, grade III, number of subjects (100 mg q.d.) | Decreased neutrophil count, grade III, number of subjects (100 mg q.d.) | Decreased serum phosphorus, grade I, number of subjects (100 mg q.d.) | Hypertriglyceridemia, grade III, number of subjects (100 mg q.d.) | Increased alanine aminotransferase, grade II, number of subjects (100 mg q.d.)
1 (12.5) n (%): Decreased neutrophil count, number of subjects (%) (50 mg q.d.) | Decreased white blood cell count, number of subjects (%) (50 mg q.d.) | Increased aspartate aminotransferase, number of subjects (%) (50 mg q.d.) | Increased creatinine, number of subjects (%) (50 mg q.d.) | Decreased neutrophil count, number of subjects (%) (100 mg q.d.) | Decreased platelet count, number of subjects (%) (100 mg q.d.) | Decreased white blood cell count, number of subjects (%) (100 mg q.d.)
0 (0) n (%): Decreased platelet count, number of subjects (%) (50 mg q.d.) | Decreased serum phosphorus, number of subjects (%) (50 mg q.d.) | Hypertriglyceridemia, number of subjects (%) (50 mg q.d.) | Increased bilirubin, number of subjects (%) (50 mg q.d.) | Increased γ-glutamyltransferase, number of subjects (%) (50 mg q.d.) | Rash, number of subjects (%) (50 mg q.d.) | Decreased serum phosphorus, number of subjects (%) (100 mg q.d.) | Hypertriglyceridemia, number of subjects (%) (100 mg q.d.)
37.50%: Increased alanine aminotransferase, grade I, percent of subjects (100 mg q.d.)
6 case: Total adverse reactions, cases (50 mg q.d.)
